Laboratory results from PMC6747015, “Structure–function study of a novel inhibitor of the casein kinase 1 family in Arabidopsis thaliana” (Plant Direct, 2019).
Entries after “also recorded” stand apart in the source; their conditions may differ. Read-outs that look alike come from different tables or passages of the source. Values belong to the molecule of their own block, whether it stands above or below them.

Key:
CCA1:LUC seedlings [1] = assay: Bioluminescence-based circadian period lengthening in CCA1:LUC seedlings; format: in vivo, Arabidopsis thaliana; details: for Period‐lengthening activity (in words) / Concentration required for 2‐hr period lengthening (2hLC) / Concentration required for 5‐hr period lengthening (5hLC): CCA1:LUC seedlings; for Concentration required for 2‐hr period lengthening (2hLC) / Concentration required for 5‐hr period lengthening (5hLC): constant light
Method: Bioluminescence‐based circadian rhythms of CCA1:LUC plants treated with small molecules were analyzed by auto‐luminescence detection (Churitsu CL96) as described previously (Uehara et al., 2019). Period length was automatically calculated as previously described (Kamioka et al., 2016).
To estimate CK1 inhibitor activity in vivo, we choose to measure circadian period‐lengthening activity in Arabidopsis seedlings. The assay was made more efficient by monitoring the circadian period using a clock reporter plant line (CCA1:LUC) and an automated luminometer. These tools can be used to measure the circadian period with high confidence, and estimates of in vivo CK1 inhibitor activity are quantitative (Uehara et al., 2019). Four‐day‐old CCA1:LUC seedlings grown under 12‐hr light/12‐hr dark conditions were treated with IC261, PF‐670462, and PHA767491 at different concentrations, and seedling luminescence was monitored under constant light conditions. Dimethyl sulfoxide (DMSO), the solvent used for all of the CK1 inhibitors, was used as a control. IC261 lengthened the circadian period of CCA1:LUC seedlings in a dose‐dependent manner (Figure 1d), with a 2‐hr period lengthening at 500 µM. PF‐670462 and PHA767491 treatment concentrations also correlated with period lengthening (Figure 1e and f). The concentrations required for 2‐hr lengthening effects were 90 µM for PF‐670472 and 47 µM for PHA767491, which was consistent with previous work (Uehara et al., 2019). Thus, PHA767491 was the strongest in vivo CK1 inhibitor among the three inhibitors tested.

Recombinant CKL4 kinase = target: T1, Recombinant CKL4 kinase (Arabidopsis thaliana, UniProt Q8LPI7); assay: In vitro phosphorylation assay of CKL4 (32P phosphorylation of casein); format: biochemical
T1 sequence (Q8LPI7 1-414): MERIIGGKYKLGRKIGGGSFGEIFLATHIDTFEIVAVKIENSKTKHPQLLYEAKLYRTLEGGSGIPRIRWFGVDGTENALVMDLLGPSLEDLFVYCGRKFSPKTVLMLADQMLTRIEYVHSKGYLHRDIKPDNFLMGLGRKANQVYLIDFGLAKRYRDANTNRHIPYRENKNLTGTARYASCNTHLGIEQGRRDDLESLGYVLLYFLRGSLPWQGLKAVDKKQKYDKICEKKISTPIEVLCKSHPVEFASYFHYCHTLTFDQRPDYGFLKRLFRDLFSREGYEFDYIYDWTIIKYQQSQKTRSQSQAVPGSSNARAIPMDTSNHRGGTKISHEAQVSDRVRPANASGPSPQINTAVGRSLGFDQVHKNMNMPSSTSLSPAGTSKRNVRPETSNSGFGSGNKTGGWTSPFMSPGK
Method: In vitro phosphorylation assays using recombinant CKL4 were performed as described previously (Uehara et al., 2019), with synthetic small molecules. IC261 and PF‐670462 were purchased (Sigma‐Aldrich catalog numbers I0658 and SML0795, respectively). PHA767491 was synthesized as previously described (Uehara et al., 2019). All chemical compounds were dissolved in dimethyl sulfoxide (DMSO) as 10 mM stock solutions. Stock solutions were diluted with DMSO to the working concentration and added to assays in kinase reaction buffer (Uehara et al., 2019).
The activities of three known CK1 inhibitors were measured in vitro by a previously reported method (Uehara et al., 2019). Recombinant CKL4 kinase, casein, ^32P‐ATP, and different concentrations of the inhibitors were combined in a reaction buffer and kept at 37°C for 2 hr. Resulting samples were separated on a polyacrylamide gel by electrophoresis, and ^32P phosphorylation of casein was measured as an indicator of CKL4 kinase activity. IC50 (half‐maximal inhibitory concentration) was determined by calculating the results from at least two independent experiments. […] The stronger in vitro CK1 inhibitory activity shown by PF‐670462 relative to PHA767491 was consistent with previous reports (Uehara et al., 2019).

PRR7 = assay: RT-qPCR of the CK1 downstream gene PRR7; format: in vivo, Arabidopsis; details: 10 and 50 µM, 6 hr
Method: Arabidopsis Col‐0 seedlings that had been grown under constant light conditions for […] were immersed in 10 or 50 µM of the GSK‐3, SHAGGY‐related, and BIN2 kinase inhibitor Bikinin (SML0094, Sigma) (De Rybel et al., 2009), […], or DMSO as control for 6 hr. Three biological replicates were used for each assay. Harvested seedlings were frozen in liquid nitrogen and crushed with zirconia beads in a Tissue Lyser II, and RNA was isolated with Illustra RNAspin (25‐0500‐72, GE Healthcare). RT‐qPCR was performed as described previously (Nakamichi et al., 2010) using an Eco Real‐Time PCR System (Illumina). Gene expression was normalized against IPP2, and maximal values were set to 1. Primers for detecting IPP2, PRR7, GR60ox2, and CPD were described previously (De Rybel et al., 2009; Kamioka et al., 2016).
Because the ATSK family was identified by the molecular probe assay as potential targets of AMI‐331, even though the affinities between AMI‐331 and ATSKs were not as high as between AMI‐331 and CK1, we used the ATSK inhibitor Bikinin to determine if AMI‐331 treatment affects the expression of genes downstream of ATSKs (De Rybel et al., 2009). Four‐day‐old Arabidopsis seedlings grown under constant light conditions were treated with Bikinin or AMI‐331 for 6 hr, and mRNA extracted from seedlings samples was analyzed by RT‐qPCR.

GR60ox2 and CPD = assay: RT-qPCR of the ATSK downstream genes GR60ox2 and CPD; format: in vivo, Arabidopsis; details: 10 or 50 µM, 6 hr
Method: […] Three biological replicates were used for each assay. Harvested seedlings were frozen in liquid nitrogen and crushed with zirconia beads in a Tissue Lyser II, and RNA was isolated with Illustra RNAspin (25‐0500‐72, GE Healthcare). RT‐qPCR was performed as described previously (Nakamichi et al., 2010) using an Eco Real‐Time PCR System (Illumina). Gene expression was normalized against IPP2, and maximal values were set to 1. Primers for detecting IPP2, PRR7, GR60ox2, and CPD were described previously (De Rybel et al., 2009; Kamioka et al., 2016).
Because the ATSK family was identified by the molecular probe assay as potential targets of AMI‐331, even though the affinities between AMI‐331 and ATSKs were not as high as between AMI‐331 and CK1, […] affects the expression of genes downstream of ATSKs (De Rybel et al., 2009). […]

CCA1:LUC seedlings [2] = test system: CCA1:LUC seedlings; design: method as in Uehara et al., 2019; details: ref Uehara et al., 2019; cited from earlier work
PRR5 and TOC1 = test system: PRR5 and TOC1; design: method as in Uehara et al., 2019; details: ref Uehara et al., 2019; cited from earlier work
[3] = recombinant CKL4, casein, 32P‐ATP, 37°C for 2 hr, read-out: IC50 for in vitro CKL4 kinase activity

SMILES: Cl.O=C1NCCc2c1cc(-c1ccncc1)n2CCn1cccc1 [AMI‐118]
- Period‐lengthening activity (in words) (CCA1:LUC seedlings [1]): weak period‐lengthening activity

SMILES: Cc1c(-c2ccncc2)[nH]c2c1C(=O)NCC2 [AMI‐217]
- Period‐lengthening activity (in words) (CCA1:LUC seedlings [1]): Strong activities

SMILES: COc1cc(OC)c(C=C2C(O)=Nc3ccccc32)c(OC)c1 [IC261, reference compound]
- IC50 (Recombinant CKL4 kinase): 6700 nM

SMILES: O=C(O)CCC(=O)Nc1ccc(Br)cn1 [Bikinin, reference compound]
- PRR7 transcript abundance (PRR7): did not affect
- GR60ox2 and CPD transcript abundance (GR60ox2 and CPD): reduced
- Period lengthening on inhibition of ATSKs (CCA1:LUC seedlings [2]): did not result in period lengthening

- IC50 (Recombinant CKL4 kinase; [3]): 800 nM
SMILES: Nc1nccc(-c2c(-c3ccc(F)cc3)ncn2C2CCCCC2)n1 [PF‐670462, reference compound]

SMILES: O=C1NCCc2[nH]c(-c3ccncc3)c(Cl)c21 [AMI‐24]
- Period‐lengthening activity (in words) (CCA1:LUC seedlings [1]): Strong activities

- IC50 (Recombinant CKL4 kinase; [3]): 700 nM
SMILES: O=C1NCCc2[nH]c(-c3ccncc3)c(Br)c21 [AMI‐23]
- Period‐lengthening activity (in words) (CCA1:LUC seedlings [1]): Strong activities
- Concentration required for 2‐hr period lengthening (2hLC) (CCA1:LUC seedlings [1]): 1.5 µM
- Concentration required for 5‐hr period lengthening (5hLC) (CCA1:LUC seedlings [1]): 5.0 µM

- IC50 (Recombinant CKL4 kinase; [3]): 5900 nM
SMILES: Cl.O=C1NCCc2[nH]c(-c3ccncc3)cc21 [PHA767491, 1,5,6,7‐tetrahydro‐2‐(4‐pyridinyl)‐4H‐pyrrolo[3,2‐c]pyridin‐4‐one hydrochloride]
- Effective concentration of PHA767491 as CK1 inhibitor in plants (CCA1:LUC seedlings [2]): more than 40 µM
- Effective concentrations for PRR5 or TOC1 accumulation (PRR5 and TOC1): 250 to 500 µM

- IC50 (Recombinant CKL4 kinase; [3]): 1200 nM
SMILES: C#CCn1c(-c2ccncc2)cc2c1CCNC2=O [AMI‐212]
- Period‐lengthening activity (in words) (CCA1:LUC seedlings [1]): weak period‐lengthening activity; also recorded: stronger period‐lengthening activity than AMI‐126
- Concentration required for 2‐hr period lengthening (2hLC) (CCA1:LUC seedlings [1]): around 7.0 µM
- Concentration required for 5‐hr period lengthening (5hLC) (CCA1:LUC seedlings [1]): 26 µM
- Concentration required for 2‐hr period lengthening (2hLC) (CCA1:LUC seedlings [1]; listed as AMI-212): 7.0 µM
- Period‐lengthening (in vivo inhibitory) activity relative to PHA767491 (CCA1:LUC seedlings [1]; compared with parent PHA767491): approximately fivefold higher

SMILES: CCn1c(-c2ccncc2)cc2c1CCNC2=O [AMI‐126]
- Period‐lengthening activity (in words) (CCA1:LUC seedlings [1]): strong activity
